According to the supplement of paper PMC8671470:

Assays:
Settings in all cases: 72 h
MV4-11 [1] = system: MV4-11
How it was run: (§1)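 Fifteen myeloid leukaemia cell lines were seeded in RPMI 1640 at a density titrated to the linear growth range. Each line went into 384-well plates with compounds acoustically pre-printed at five tenfold doses from 1 to 10,000 nM, in duplicate, and was incubated for 72 h at 37 °C with 5% CO2. Luminescent ATP viability was normalised to vehicle and to a positive control at 10 µM. The IC50 came from four-parameter log-logistic dose–response fits.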

THP-1 [2] = system: THP-1
How it was run: as §1

NOMO-1 [3] = system: NOMO-1
How it was run: as §1

KG-1 [4] = system: KG-1
How it was run: as §1

ML-2 [5] = system: ML-2
How it was run: as §1

K-562 [6] = system: K-562
How it was run: as §1

KU-812 [7] = system: KU-812
How it was run: as §1

LAMA-84 [8] = system: LAMA-84
How it was run: as §1

KCL-22 [9] = system: KCL-22
How it was run: as §1

HL-60 [10] = system: HL-60
How it was run: as §1

Mono-Mac-6 [11] = system: Mono-Mac-6
How it was run: as §1

MOLM-13 [12] = system: MOLM-13
How it was run: as §1

HEL [13] = system: HEL
How it was run: as §1

SHI-1 [14] = system: SHI-1
How it was run: as §1

BV-173 [15] = system: BV-173
How it was run: as §1

MV4-11 [16] = experiment: cell viability (% survival relative to DMSO control, bortezomib = 0%); higher = less cytotoxic
How it was run: (§2)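 Fifteen myeloid leukaemia cell lines (10 AML, 5 CML) were seeded at a density titrated to the linear growth range into 384-well plates pre-printed with compounds at 1, 10, 100, 1000 or 10000 nM in duplicate. Plates were incubated for 72 h at 37 °C with 5% CO2. Viability was then read by CellTiter-Glo luminescence. Each value is percent survival averaged over the duplicates, with vehicle set to 100% and a 10 µM positive control to 0%.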

THP-1 [17] = experiment: as above
How it was run: as §2

NOMO-1 [18] = experiment: as above
How it was run: as §2

KG-1 [19] = experiment: as above
How it was run: as §2

ML-2 [20] = experiment: as above
How it was run: as §2

K-562 [21] = experiment: as above
How it was run: as §2

KU-812 [22] = experiment: as above
How it was run: as §2

LAMA-84 [23] = experiment: as above
How it was run: as §2

KCL-22 [24] = experiment: as above
How it was run: as §2

HL-60 [25] = experiment: as above
How it was run: as §2

Mono-Mac-6 [26] = experiment: as above
How it was run: as §2

MOLM-13 [27] = experiment: as above
How it was run: as §2

HEL [28] = experiment: as above
How it was run: as §2

SHI-1 [29] = experiment: as above
How it was run: as §2

BV-173 [30] = experiment: as above
How it was run: as §2

[31] = system: myeloid leukemia patient primary cells Pat.1; experiment: area under dose-response curve (viability, 1 nM-10 uM) (fraction (0-1)); higher = more sensitive
Experimental: (§3)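 AUC (0–1, higher = more sensitive) of the 5-point dose–response (1 nM–10 µM, 72 h, CellTiter-Glo) in primary AML/CML patient mononuclear cells. 0.030103 is the floor for inactive compounds.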

[32] = system: myeloid leukemia patient primary cells Pat.13; experiment: as above
Experimental: as §3

[33] = system: myeloid leukemia patient primary cells Pat.6; experiment: as above
Experimental: as §3

[34] = system: myeloid leukemia patient primary cells Pat.7; experiment: as above
Experimental: as §3

[35] = system: myeloid leukemia patient primary cells Pat.14; experiment: as above
Experimental: as §3

[36] = system: myeloid leukemia patient primary cells Pat.4; experiment: as above
Experimental: as §3

[37] = system: myeloid leukemia patient primary cells Pat.5; experiment: as above
Experimental: as §3

[38] = system: myeloid leukemia patient primary cells Pat.8; experiment: as above
Experimental: as §3

[39] = system: myeloid leukemia patient primary cells Pat.10; experiment: as above
Experimental: as §3

[40] = system: myeloid leukemia patient primary cells Pat.9; experiment: as above
Experimental: as §3

[41] = system: myeloid leukemia patient primary cells Pat.15; experiment: as above
Experimental: as §3

[42] = system: myeloid leukemia patient primary cells Pat.3; experiment: as above
Experimental: as §3

[43] = system: myeloid leukemia patient primary cells Pat.2; experiment: as above
Experimental: as §3

[44] = system: myeloid leukemia patient primary cells Pat.11; experiment: as above
Experimental: as §3

[45] = system: myeloid leukemia patient primary cells Pat.12; experiment: as above
Experimental: as §3

[46] = system: myeloid leukemia patient primary cells Pat.1; experiment: cell viability (% survival relative to DMSO control); higher = less cytotoxic
How it was run: (§4)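 Mononuclear cells from patients with AML or CML were thawed, purified on Ficoll and placed in RPMI 1640 with 10% FBS at 10,000 cells/well on 384-well plates. The plates came pre-printed with 70 compounds at five tenfold concentrations spanning 1–10,000 nM, in duplicate, and cells were exposed for 72 h. CellTiter-Glo gave viability, scaled between DMSO wells and wells with 10 μM proteasome inhibitor. Where reported, area under the curve was obtained from log-logistic fits with four parameters using the drc and PharmacoGx R packages.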

[47] = system: myeloid leukemia patient primary cells Pat.13; experiment: as above
How it was run: as §4

[48] = system: myeloid leukemia patient primary cells Pat.6; experiment: as above
How it was run: as §4

[49] = system: myeloid leukemia patient primary cells Pat.7; experiment: as above
How it was run: as §4

[50] = system: myeloid leukemia patient primary cells Pat.14; experiment: as above
How it was run: as §4

[51] = system: myeloid leukemia patient primary cells Pat.4; experiment: as above
How it was run: as §4

[52] = system: myeloid leukemia patient primary cells Pat.5; experiment: as above
How it was run: as §4

[53] = system: myeloid leukemia patient primary cells Pat.8; experiment: as above
How it was run: as §4

[54] = system: myeloid leukemia patient primary cells Pat.10; experiment: as above
How it was run: as §4

[55] = system: myeloid leukemia patient primary cells Pat.9; experiment: as above
How it was run: as §4

[56] = system: myeloid leukemia patient primary cells Pat.15; experiment: as above
How it was run: as §4

[57] = system: myeloid leukemia patient primary cells Pat.3; experiment: as above
How it was run: as §4

[58] = system: myeloid leukemia patient primary cells Pat.2; experiment: as above
How it was run: as §4

[59] = system: myeloid leukemia patient primary cells Pat.11; experiment: as above
How it was run: as §4

[60] = system: myeloid leukemia patient primary cells Pat.12; experiment: as above
How it was run: as §4

CC(C)(O)CNc1nc(Nc2ccnc(C(F)(F)F)c2)nc(-c2cccc(C(F)(F)F)n2)n1 [Enasidenib]
Settings | IC50 (cell viability) [µM]
BV-173 [15] | > 10
HEL [13] | > 10
HL-60 [10] | > 10
K-562 [6] | > 10
KCL-22 [9] | > 10
KG-1 [4] | > 10
KU-812 [7] | > 10
LAMA-84 [8] | > 10
ML-2 [5] | > 10
MOLM-13 [12] | > 10
MV4-11 [1] | > 10
Mono-Mac-6 [11] | > 10
NOMO-1 [3] | > 10
SHI-1 [14] | > 10
THP-1 [2] | > 10

cell viability [%]
Settings | 1 nM | 10 nM | 100 nM | 1000 nM | 10000 nM
BV-173 [30] | 101 | 90.7 | 121 | 98.4 | 90
HEL [28] | 106 | 106 | 123 | 111 | 85.6
HL-60 [25] | 118 | 108 | 118 | 99.1 | 106
K-562 [21] | 93.1 | 98.3 | 98.3 | 95.2 | 82.5
KCL-22 [24] | 89.2 | 102 | 113 | 97.4 | 93.6
KG-1 [19] | 103 | 95 | 107 | 92.8 | 117
KU-812 [22] | 92.4 | 97.2 | 103 | 90 | 93.2
LAMA-84 [23] | 101 | 94.8 | 99.1 | 104 | 103
ML-2 [20] | 109 | 100 | 113 | 97.3 | 68.8
MOLM-13 [27] | 83.9 | 90.8 | 98.5 | 101 | 103
MV4-11 [16] | 101 | 88.9 | 112 | 103 | 81.1
Mono-Mac-6 [26] | 94.8 | 100 | 113 | 107 | 126
NOMO-1 [18] | 98.3 | 98.8 | 107 | 93.6 | 92.9
SHI-1 [29] | 109 | 105 | 114 | 113 | 109
THP-1 [17] | 101 | 103 | 114 | 93.5 | 97.5

O=C(CCl)N(CCCNC(=O)C(F)(F)F)c1ccc([N+](=O)[O-])cc1 [ML-175]
Settings | area under dose-response curve
[31] | 0.149
[32] | 0.19
[33] | 0.204
[34] | 0.533
[35] | 0.488
[36] | 0.29
[37] | 0.744
[38] | 0.192
[39] | 0.542
[40] | 0.593
[41] | 0.159
[42] | 0.498
[43] | 0.147
[44] | 0.199
[45] | 0.221

cell viability [%]
Settings | 1 nM | 10 nM | 100 nM | 1000 nM | 10000 nM
[46] | 85.7 | 78.3 | 67.8 | 72.8 | < 0
[47] | 92.9 | 88.6 | 71.6 | 62.1 | 3.76
[48] | 97.1 | 94.4 | 70.2 | 61.2 | 1.29
[49] | > 100 | 89.4 | 11.6 | 43.6 | 50
[50] | 87.8 | 82.6 | 29.4 | 51.2 | 2.44
[51] | 97.6 | 79.3 | 65.7 | 42.1 | 1.37
[52] | 99.9 | 51.6 | < 0 | 2.01 | < 0
[53] | 87.1 | 89 | 85.1 | 65.8 | 0.0301
[54] | 81.5 | 93.1 | 17.1 | 15.7 | 5.41
[55] | 64.6 | 81.5 | 7.88 | 7.21 | 0.492
[56] | 95 | 80.2 | 86.1 | 75.6 | 1.52
[57] | 96.1 | 96.2 | 23.6 | 46.1 | 0.554
[58] | 94.8 | 93.7 | 89.3 | 82.8 | 4.31
[59] | 95.5 | 97 | 86.2 | 67.7 | 1.51
[60] | 96.2 | 98.2 | 80.4 | 58.4 | 1.48
